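Test compounds were applied to cells in 96-well plates for 48 hours at 5 doses. GI50: concentration for 50% inhibition of growth. Definition used: TGI = concentration required for complete inhibition of growth.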
Experiments:
Assay in all cases: DTP human tumour cell line panel, 48 h
T-47D breast = system: T-47D breast
CAKI-1 renal = system: CAKI-1 renal
OVCAR-3 ovarian = system: OVCAR-3 ovarian
RPMI-8226 leukemia = system: RPMI-8226 leukemia
BT-549 breast = system: BT-549 breast
COLO 205 colon = system: COLO 205 colon
SF-268 CNS = system: SF-268 CNS
UO-31 renal = system: UO-31 renal
HCT-116 colon = system: HCT-116 colon
HS 578T breast = system: HS 578T breast

Row | Structure (SMILES) | GI50 (T-47D breast) | TGI (T-47D breast) | GI50 (CAKI-1 renal) | TGI (CAKI-1 renal) | GI50 (OVCAR-3 ovarian) | TGI (OVCAR-3 ovarian) | GI50 (RPMI-8226 leukemia) | TGI (RPMI-8226 leukemia) | GI50 (BT-549 breast) | TGI (BT-549 breast) | GI50 (COLO 205 colon) | TGI (COLO 205 colon) | GI50 (SF-268 CNS) | TGI (SF-268 CNS) | GI50 (UO-31 renal) | TGI (UO-31 renal) | TGI (HCT-116 colon) | GI50 (HS 578T breast) | TGI (HS 578T breast) | GI50 (HCT-116 colon)
1 | C[C@]12CC[C@@H]3c4ccc(O)cc4C[C@@H](CCCCCCCCCS(=O)CCCC(F)(F)C(F)(F)F)[C@H]3[C@@H]1CC[C@@H]2O (some centres undefined) | 0.71 µM | > 100 µM | > 100 µM | > 100 µM | > 100 µM | > 100 µM | 2.35 µM | > 100 µM | > 49.9 µM | > 100 µM | > 100 µM | > 100 µM | > 100 µM | > 100 µM | > 100 µM | > 100 µM | > 100 µM | > 100 µM | > 100 µM | 
2 | O=c1[nH]c(=O)n(C2CC(O)C(CS)O2)cc1F (centres undefined) |  | > 100 µM |  | > 100 µM |  | > 100 µM |  | > 100 µM |  | > 100 µM |  | > 100 µM |  | > 100 µM |  | > 100 µM | > 100 µM |  | > 100 µM | 
3 | CC12CCCC(CC(=O)c3[nH]c4ccccc4c31)C2 (centres undefined) | 0.65 µM | > 100 µM | 0.535 µM | > 78.8 µM | 0.384 µM | 2.61 µM | 0.656 µM | 12.7 µM | 0.624 µM | 12.8 µM | 1.29 µM | 5.3 µM | 1.94 µM | > 65.2 µM | 2.4 µM | > 100 µM | 18.9 µM | 0.936 µM | 37.8 µM | 0.429 µM
4 | CC(C)(C)C1=CC(=CC=C2C=CN(CCCCCCCCCCCO)C=C2)C=C(C(C)(C)C)C1=O |  | 2.7 µM |  | 6.7 µM |  | 2.87 µM |  | 1.94 µM |  | 4.44 µM |  | 2.82 µM |  | 3.83 µM |  | 3.67 µM | 3.05 µM |  | 4.23 µM | 
5 | COc1ccc(C(=O)/C=C/c2cccnc2Nc2cc(OC)c(OC)c(OC)c2)cc1 | 1.94 µM | 15.6 µM | 2.42 µM | 14.7 µM | 0.617 µM | 4.72 µM | 0.885 µM | 4.71 µM | 3.1 µM | 11.6 µM | 1.95 µM | 6.12 µM | 3.04 µM | 14.8 µM | 1.17 µM | 3.04 µM | 2.1 µM | 5.31 µM | 38.6 µM | 0.54 µM
6 | CC(C)CSc1nc(Nc2ccccc2)c(C#N)c(-c2ccc(F)cc2)n1 | 2.97 µM | 32.8 µM | 0.486 µM | 2.46 µM | 1.11 µM | 4.22 µM | 5.49 µM | > 100 µM | 7.24 µM | 32.3 µM | 1.86 µM | 20.1 µM | 4.41 µM | 22.7 µM | 2.04 µM | 22.1 µM | 11.9 µM | 1.6 µM | 11 µM | 2.01 µM

— PubChem BioAssay (NCI)
